Source: paper PMC9268102, “Design, Synthesis and Biological Evaluation of 1,3,5-Triazine Derivatives Targeting hA1 and hA3 Adenosine Receptor” (Molecules, 2022)

Experiments:
Type in all cases: cell-based
[1] = tested on: A549 cells; experiment: Mitochondrial membrane potential by TMRM flow cytometry; settings: 48 h, control 93.8%
Experimental: ROS-induced oxidative stress can cause the rapid depolarization of the inner mitochondrial membrane potential (ΔΨm) and, as a result, impairment of oxidative phosphorylation. Using tetramethylrhodamine methyl ester (TMRM) measurements, we investigated how mitochondrial membrane potential was affected by 9c. A549 cells were exposed to 9c following incubation with TMRM. Afterward, flow cytometry was employed to calculate the intensity of TMRM binding in the healthy membrane.
(§1) A549 cells were incubated with a fluorescent indicator, specifically 100 nM tetramethylrhodamine methyl ester perchlorate (TMRM, Thermo Fisher Scientific, Waltham, MA, USA), to determine the mitochondrial membrane potential. The A549 cells treated with the compound were harvested after 48 h, washed in PBS, and re-suspended in FACS buffer (PBS supplemented with 2 percent fetal bovine serum). A flow cytometer (BD FACSVerse, BD Biosciences, San Jose, CA, USA) and the FlowJo software (FlowJo LLC, Ashland, OR, USA) were used to analyze the cells. […] Intracellular fluorescence measurements involved the use of a flow cytometer (BD FACSVerse, BD Biosciences, San Jose, CA, USA) and the FlowJo software (Version 10, TreeStar, Ashland, OR, USA).

[2] = tested on: A549 cells; experiment: Live-dead assay (calcein/EthD-1) by flow cytometry; settings: 48 h
Experimental: A live cell assay and a dead cell assay were carried out using a mixture of two fluorescent dyes: calcein (green dye for live cells) and ethidium homodimer-1 (EthD-1, red dye for dead cells). The cells were washed and stained with calcein and EthD-1 before conducting imaging fluorescence microscopy and flow cytometry experiments. When treated with 20 μM 9c, we observed a drastic decrease in the number of live cells (green) and a slight increase in the number of dead cells (red).
The A549 cells were seeded in 6-well plates at a density of 1 × 10^6 cells per well, and the cells underwent treatment with the compound (20 and 40 μM) for 48 h. The A549 cells were analyzed using fluorescent dyes for both living and dead cells with the LIVE/DEAD kit (Thermo Fisher Scientific, Waltham, MA, USA). For cell staining, we used EthD-1 and calcein by referring to the manufacturer’s instructions. Images were captured with an EVOS M5000 Imaging System (Thermo Fisher Scientific Inc., Waltham, MA, USA).

[3] = tested on: A549 cells; experiment: Cell viability (MTS) assay in A549 cells; settings: Homo sapiens, 48 h
Experimental: To test the effect of the compounds in terms of cell growth regulation in lung cancer cell lines such as A549 and NCI-H1299 cells, these cells were treated in 96-well plates for 48 h with the compounds at concentrations ranging from 0 μM to 100 μM. […] Therefore, we decided to perform an additional experiment with 9c.
A549 and NCI-H1299 cells were seeded in 96-well plates at a density of 1 × 10^5 cells per well for 24 h before being exposed to compounds at various concentrations. After 48 h of compound treatment, the CellTiter 96 AQueous One Solution Cell Proliferation Assay Kit (Promega, Madison, WI, USA) was used to conduct a cell viability assay. The cells were incubated with solution reagents for 2 h at 37 °C before being measured for absorbance at 490 nm using a Synergy HTX Multi-Mode microplate reader (BioTek Instruments, Inc., Winooski, VT, USA).

[4] = tested on: A549 cells; experiment: Intracellular ROS by H2DCF-DA flow cytometry; settings: 48 h, control 1.26%
Excerpt: Although reactive oxygen species (ROS) play an important role in regulating normal cellular processes, abnormal ROS levels contribute to the development of a variety of human diseases, including cancer. Because of their accelerated metabolism, cancer cells have higher ROS levels than normal cells. Nevertheless, the high ROS content of cancer cells makes them more susceptible to oxidative stress-induced cell death, which can be used to target cancer cells selectively. Flow cytometry was used to determine whether 9c induces ROS generation in A549 cells by examining the results. The experiment was conducted with H2DCF-DA as a fluorescent probe. […] Next, we determined the effect of 9c in regulating mitochondrial ROS.
as §1, with “serum).” for “serum). A flow cytometer (BD FACSVerse, BD Biosciences, San Jose, CA, USA) and the FlowJo software (FlowJo LLC, Ashland, OR, USA) were used to analyze the cells.”

## COc1cc(Nc2nc(N)nc(-c3ccc(O)cc3)n2)ccc1Cl [Compound 9c, 4-{4-amino-6-[(4-chloro-3-methoxyphenyl)amino]-1,3,5-triazin-2-yl}phenol]
[1]; 20 μM
  TMRM-positive intensity, TMRM (+): 74.6%
[1]; 40 μM
  TMRM-positive intensity, TMRM (+): 52.3%
[2]; 20 μM
  Dead cells (quadrant Q4): 34.4%
[2]; 40 μM
  Dead cells (quadrant Q4): 46.1%
[3]
  viability at 25 µM: 59.9%
[4]; 20 μM
  ROS level (H2DCF-DA positive): 7.31%
[4]; 40 μM
  ROS level (H2DCF-DA positive): 22.6%
